According to publication PMC10204090, “TFBMiner: A User-Friendly Command Line Tool for the Rapid Mining of Transcription Factor-Based Biosensors” (ACS Synthetic Biology, 2023):

Target: T1, P. hospita MdlR (C2L64_43720) (Paraburkholderia hospita, UniProt A0AAN1MPU5)
T1 construct: gene WQE_50835; full-length LysR-type regulator, gene codon-optimised for E. coli, expressed from Ptrc in E. coli NEB 5-alpha; rfp reporter under P. hospita PmdlC (PC2L64_43715)
T1 sequence (A0AAN1MPU5 1-297): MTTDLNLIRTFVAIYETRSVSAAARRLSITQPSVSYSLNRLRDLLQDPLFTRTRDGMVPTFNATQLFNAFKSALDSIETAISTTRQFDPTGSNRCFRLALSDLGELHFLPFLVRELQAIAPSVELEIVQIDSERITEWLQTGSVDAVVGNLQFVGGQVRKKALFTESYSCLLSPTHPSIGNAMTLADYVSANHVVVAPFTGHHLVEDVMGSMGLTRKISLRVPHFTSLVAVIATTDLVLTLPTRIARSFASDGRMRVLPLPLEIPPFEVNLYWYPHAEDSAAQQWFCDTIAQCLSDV
Assay: E. coli whole-cell RFP reporter assay, Hill fit
Type: cell-based
Conditions: read-out: Km ^a
Text: E. coli whole-cell RFP reporter assay, Hill fit on P. hospita MdlR (C2L64_43720)

SMILES	EC50 [µM]
O=C(O)[C@@H](O)c1ccccc1 [compound 1, S-mandelate]	167
O=C(O)C(=O)c1ccccc1 [compound 4, phenylglyoxylate]	93
